Where only a bound is given, the exact number is not on record here.

This is an account of results in patent US7642245B2, “Antibacterial compounds having a (pyrrole carboxamide)-(benzamide)-(imidazole carboxamide) motif” (Oscient Pharmaceuticals Corporation, priority 2002, dated 2010).

In one assay the test system is S. aureus ATCC 13709. Nature of the assay: MIC, NCCLS broth microdilution. It counts as cell-based, Staphylococcus aureus. Particulars: A = S. aureus ATCC 13709 (MSSA). An outline of the steps: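 MIC values come from microtiter-plate broth microdilution run to NCCLS standards (M7-A4, M11-A4, M27-T). For C. albicans ATCC 38247, the antifungal procedure of the 1995 Manual of Clinical Microbiology was used instead.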
Background: In broth dilution the organism is exposed to a series of concentrations in liquid medium.

The test system of a further assay is S. aureus ATCC 27660. Nature of the assay: MIC, NCCLS broth microdilution. It counts as cell-based, Staphylococcus aureus. Particulars: B = S. aureus ATCC 27660 (MRSA). An outline of the steps:
(§1)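 Antibacterial MICs against B. cereus, methicillin-resistant S. aureus and M. catarrhalis were measured by the NCCLS reference broth microdilution method. Yeast testing applied the Manual of Clinical Microbiology antifungal protocol.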

In the next assay the test system is E. faecalis ATCC 29212. Nature of the assay: MIC, NCCLS broth microdilution. The format is cell-based, Enterococcus faecalis. Particulars: C = E. faecalis ATCC 29212. In short, it runs like this:
(§2)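 Minimal inhibitory concentration determined by NCCLS broth microdilution in microtiter plates per documents M7-A4, M11-A4 and M27-T. S. aureus ATCC 27660 is a methicillin-resistant strain. The antifungal test on C. albicans followed the method recommended in the Manual of Clinical Microbiology (1995).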

A further assay relates to B. cereus ATCC 11778. As to the kind of experiment: MIC, NCCLS broth microdilution. It counts as cell-based, Bacillus cereus. Particulars: D = B. cereus ATCC 11778. In short, it runs like this: as §1
The next assay relates to S. pneumoniae ATCC 49619. As to the kind of experiment: MIC, NCCLS broth microdilution. It counts as cell-based, Streptococcus pneumoniae. Particulars: E = S. pneumoniae ATCC 49619. In short, it runs like this: as §2
A further assay deals with C. albicans ATCC 38247. As to the kind of experiment: MIC, antifungal assay. The format is cell-based, Candida albicans. The following applies: F = C. albicans ATCC 38247. In short, it runs like this:
as §1

Another assay relates to E. coli ATCC 25922. Nature of the assay: MIC, NCCLS broth microdilution. Particulars: G = E. coli ATCC 25922. The format is cell-based, Escherichia coli. An outline of the steps:
as §2

The subject of assay [1] is M. catarrhalis (ATCC 25238). As to the kind of experiment: MIC, NCCLS broth microdilution. It counts as cell-based, Moraxella (now Branhamella) catarrhalis. The following applies: H = M. catarrhalis (ATCC 25238). An outline of the steps:
as §1

In the case of `Cn1cc(NC(=O)c2cc3ccccc3cn2)cc1C(=O)Nc1ccc(C(=O)Nc2cn(C)c(C(=O)NCCNC(CO)CO)n2)cc1` [Compound A-50], the “Minimum Inhibitory Concentration (MIC)” value is “+++ (MIC ≦ 4 μg/mL)” in the assay with S. aureus ATCC 13709; “+++ (MIC ≦ 4 μg/mL)” in the assay with S. aureus ATCC 27660; “++ (4 < MIC < 12 μg/mL)” in the assay with E. faecalis ATCC 29212; “+ (12 ≦ MIC ≦ 32 μg/mL)” in the assay on B. cereus ATCC 11778; “+++ (MIC ≦ 4 μg/mL)” in the assay with S. pneumoniae ATCC 49619; above 32 µg/mL with C. albicans ATCC 38247. Besides, the “Minimum Inhibitory Concentration (MIC)” value (with E. coli ATCC 25922; in assay [1]) was above 32 µg/mL throughout.

On to `C[C@@H]1CN(CCNC(=O)c2nc(NC(=O)c3ccc(NC(=O)c4cc(NC(=O)c5cc6ccccc6cn5)cn4C)cc3)cn2C)C[C@H](C)O1` [Compound A-51], for which the “Minimum Inhibitory Concentration (MIC)” value in the assay with S. aureus ATCC 13709 is “+++ (MIC ≦ 4 μg/mL)”; with S. aureus ATCC 27660, “+++ (MIC ≦ 4 μg/mL)”; in the assay with E. faecalis ATCC 29212 it was “+++ (MIC ≦ 4 μg/mL)”; in the assay on B. cereus ATCC 11778, “+++ (MIC ≦ 4 μg/mL)”; with S. pneumoniae ATCC 49619, “+++ (MIC ≦ 4 μg/mL)”; with C. albicans ATCC 38247 it was above 32 µg/mL. The “Minimum Inhibitory Concentration (MIC)” value is above 32 µg/mL in the assay with E. coli ATCC 25922 and “+++ (MIC ≦ 4 μg/mL)” in assay [1].

Regarding `CC(C)N1CCN(CCC(=O)OC2CCN(CCNC(=O)c3nc(NC(=O)c4ccc(NC(=O)c5cc(NC(=O)c6cc7ccccc7cn6)cn5C)cc4)cn3C)CC2)CC1` [Compound A-53], the “Minimum Inhibitory Concentration (MIC)” value is “+++ (MIC ≦ 4 μg/mL)” in the assay on S. aureus ATCC 13709; “+++ (MIC ≦ 4 μg/mL)” in the assay with S. aureus ATCC 27660; “+++ (MIC ≦ 4 μg/mL)” with E. faecalis ATCC 29212; “+++ (MIC ≦ 4 μg/mL)” in the assay with B. cereus ATCC 11778; “+++ (MIC ≦ 4 μg/mL)” with S. pneumoniae ATCC 49619; above 32 µg/mL with C. albicans ATCC 38247. The “Minimum Inhibitory Concentration (MIC)” value was above 32 µg/mL in the assay with E. coli ATCC 25922 and “+++ (MIC ≦ 4 μg/mL)” in assay [1].

Regarding `Cn1cc(NC(=O)c2cc3ccccc3cn2)cc1C(=O)Nc1ccc(C(=O)Nc2cn(C)c(C(=O)NCCN(CCO)CCO)n2)cc1` [Compound A-54], the “Minimum Inhibitory Concentration (MIC)” value in the assay on S. aureus ATCC 13709 was “+++ (MIC ≦ 4 μg/mL)”; in the assay on S. aureus ATCC 27660, “+++ (MIC ≦ 4 μg/mL)”; in the assay on E. faecalis ATCC 29212, “+++ (MIC ≦ 4 μg/mL)”; in the assay on B. cereus ATCC 11778, “+++ (MIC ≦ 4 μg/mL)”; in the assay with S. pneumoniae ATCC 49619, “+++ (MIC ≦ 4 μg/mL)”; in the assay with C. albicans ATCC 38247, above 32 µg/mL. The “Minimum Inhibitory Concentration (MIC)” value (in the assay on E. coli ATCC 25922; in assay [1]) was above 32 µg/mL each time.

For the compound `Cn1cc(NC(=O)c2cc3ccccc3cn2)cc1C(=O)Nc1ccc(C(=O)Nc2cn(C)c(C(=O)NCCN3CCN(C(=O)OC(C)(C)C)CC3)n2)cc1` [Compound A-55], the “Minimum Inhibitory Concentration (MIC)” value was “+++ (MIC ≦ 4 μg/mL)” in the assay on S. aureus ATCC 13709; “+++ (MIC ≦ 4 μg/mL)” in the assay with S. aureus ATCC 27660; “+++ (MIC ≦ 4 μg/mL)” in the assay on E. faecalis ATCC 29212; “+++ (MIC ≦ 4 μg/mL)” with B. cereus ATCC 11778; “+++ (MIC ≦ 4 μg/mL)” in the assay on S. pneumoniae ATCC 49619; above 32 µg/mL in the assay with C. albicans ATCC 38247. Moreover, the “Minimum Inhibitory Concentration (MIC)” value in the assay on E. coli ATCC 25922 was above 32 µg/mL; in assay [1] it was “+ (12 ≦ MIC ≦ 32 μg/mL)”.

Consider `Cn1cc(NC(=O)c2cc3ccccc3cn2)cc1C(=O)Nc1ccc(C(=O)Nc2cn(C)c(C(=O)NCCN3CCN(S(C)(=O)=O)CC3)n2)cc1` [Compound A-56], for which the “Minimum Inhibitory Concentration (MIC)” value in the assay with S. aureus ATCC 13709 is “+++ (MIC ≦ 4 μg/mL)”; in the assay on S. aureus ATCC 27660 it was “+++ (MIC ≦ 4 μg/mL)”; in the assay with E. faecalis ATCC 29212, “+++ (MIC ≦ 4 μg/mL)”; in the assay on B. cereus ATCC 11778 it was “+++ (MIC ≦ 4 μg/mL)”; in the assay on S. pneumoniae ATCC 49619, “+++ (MIC ≦ 4 μg/mL)”; in the assay with C. albicans ATCC 38247, above 32 µg/mL. The “Minimum Inhibitory Concentration (MIC)” value in the assay with E. coli ATCC 25922 was above 32 µg/mL; in assay [1], “+++ (MIC ≦ 4 μg/mL)”.

As for `Cn1cc(NC(=O)c2cc3ccccc3cn2)cc1C(=O)Nc1ccc(C(=O)Nc2cn(C)c(C(=O)NCCN3CCC(OC(=O)CCN(CCO)CCO)CC3)n2)cc1` [Compound A-57], the “Minimum Inhibitory Concentration (MIC)” value in the assay with S. aureus ATCC 13709 is “+++ (MIC ≦ 4 μg/mL)”; in the assay on S. aureus ATCC 27660 it was “+++ (MIC ≦ 4 μg/mL)”; in the assay on E. faecalis ATCC 29212, “+++ (MIC ≦ 4 μg/mL)”; with B. cereus ATCC 11778 it was “+++ (MIC ≦ 4 μg/mL)”; in the assay on S. pneumoniae ATCC 49619, “+++ (MIC ≦ 4 μg/mL)”; with C. albicans ATCC 38247, above 32 µg/mL. For the same compound, the “Minimum Inhibitory Concentration (MIC)” value in the assay with E. coli ATCC 25922 was “++ (4 < MIC < 12 μg/mL)”; in assay [1], “+++ (MIC ≦ 4 μg/mL)”.

Take `Cn1cc(NC(=O)c2cc3ccccc3cn2)cc1C(=O)Nc1ccc(C(=O)Nc2cn(C)c(C(=O)NCCN3CCN(CC#N)CC3)n2)cc1` [Compound A-58]: the “Minimum Inhibitory Concentration (MIC)” value with S. aureus ATCC 13709 was “+++ (MIC ≦ 4 μg/mL)”; with S. aureus ATCC 27660, “+++ (MIC ≦ 4 μg/mL)”; with E. faecalis ATCC 29212, “+++ (MIC ≦ 4 μg/mL)”; in the assay on B. cereus ATCC 11778, “+++ (MIC ≦ 4 μg/mL)”; in the assay with S. pneumoniae ATCC 49619, “+++ (MIC ≦ 4 μg/mL)”; in the assay on C. albicans ATCC 38247, above 32 µg/mL. The “Minimum Inhibitory Concentration (MIC)” value was above 32 µg/mL in the assay with E. coli ATCC 25922 and “+++ (MIC ≦ 4 μg/mL)” in assay [1].

For the compound `Cn1cc(NC(=O)c2cc3ccccc3cn2)cc1C(=O)Nc1ccc(C(=O)Nc2cn(C)c(C(=O)NCCN3CCC(OC(=O)CCN4CCOCC4)CC3)n2)cc1` [Compound A-59], the “Minimum Inhibitory Concentration (MIC)” value in the assay with S. aureus ATCC 13709 was “+++ (MIC ≦ 4 μg/mL)”; with S. aureus ATCC 27660 it was “+++ (MIC ≦ 4 μg/mL)”; in the assay on E. faecalis ATCC 29212, “+++ (MIC ≦ 4 μg/mL)”; in the assay with B. cereus ATCC 11778, “+++ (MIC ≦ 4 μg/mL)”; in the assay on S. pneumoniae ATCC 49619, “+++ (MIC ≦ 4 μg/mL)”; with C. albicans ATCC 38247, above 32 µg/mL. Also, the entries for the “Minimum Inhibitory Concentration (MIC)” value (in the assay on E. coli ATCC 25922; in assay [1]) were above 32 µg/mL and “+++ (MIC ≦ 4 μg/mL)”, respectively.

Regarding `Cn1cc(NC(=O)c2cc3ccccc3cn2)cc1C(=O)Nc1ccc(C(=O)Nc2cn(C)c(C(=O)NCCN3CCC(OC(=O)CCN)CC3)n2)cc1` [Compound A-60], the “Minimum Inhibitory Concentration (MIC)” value in the assay with S. aureus ATCC 13709 is given as “+++ (MIC ≦ 4 μg/mL)”; with S. aureus ATCC 27660, “+++ (MIC ≦ 4 μg/mL)”; in the assay on E. faecalis ATCC 29212, “+++ (MIC ≦ 4 μg/mL)”; in the assay on B. cereus ATCC 11778, “+++ (MIC ≦ 4 μg/mL)”; in the assay with S. pneumoniae ATCC 49619, “+++ (MIC ≦ 4 μg/mL)”; in the assay on C. albicans ATCC 38247, “++ (4 < MIC < 12 μg/mL)”. Further, the “Minimum Inhibitory Concentration (MIC)” value in the assay on E. coli ATCC 25922 was above 32 µg/mL; in assay [1], “++ (4 < MIC < 12 μg/mL)”.
